Laboratory results taken from patent publication US11246856B2, “Methods of treating resistant cancers” (University of Maryland, Baltimore, priority 2017, dated 2022).
“Also recorded” adds a separate entry of the source.

Experiments:
[1] = system: A375 cells; assay: Immunoblot of signaling, cell cycle and apoptosis markers in A375 cells; format: cell-based
Protocol: Equivalent amounts of protein were electrophoresed on denaturing and reducing 10% polyacrylamide gels and transferred to nitrocellulose membrane. The membrane was blocked by 5% nonfat dry milk for one hour and incubated with 1:1000 primary antibody in 5% nonfat dry milk. Blots were rinsed in TBS-T and then incubated with secondary antibodies (1:5000) for 2 h. Secondary antibody binding was visualized using ECL Prime (Amersham) chemiluminescence detection technology. For immunostaining, cells were harvested, suspended in growth medium, and plated in LAB-TEK II Chamber Slide System. After 24 h, the cells were fixed with 4% paraformaldehyde at room temperature for 15 min, washed three with phosphate-buffered saline, in 0.1% Triton X-100 for 15 min, washed with phosphate-buffered saline, and blocked for 1 h with phosphate-buffered saline containing 7.5% fetal calf serum. Primary antibodies were added, and the slides incubated overnight at 4° C. Cells were then washed three times with phosphate-buffered saline and incubated 1 h with the appropriate Alexa Flour fluorescence probe-conjugated secondary antibody. After additional washing, the cells were stained with DAPI for 10 min prior to imaging.

[2] = system: A375-PLX-R cells; assay: Matrigel invasion assay, A375-PLX-R; format: cell-based; design: suppression of matrigel invasion at higher verteporfin concentrations: dose or concentration left out as unconfirmed
Protocol: (§1) Matrigel (BD Biolabs) was diluted in 0.01 M Tris-HCL/0.7% NaCl, filter-sterilized and 0.1 ml was used to cover the membrane in BD BioCoat cell inserts (#353097, […], 24 well format, membrane growth area=0.33 cm^2). Cells 25,000/well were plated in […] of growth media containing 1% FCS atop the Matrigel. Growth media containing 10% FCS was added to the lower well and cells were incubated overnight at 37 C. The following day, excess cells from the top side of the membrane were removed with a cotton swab, and the membrane was rinsed in phosphate-buffered saline, fixed with 4% paraformaldehyde for 10 minutes, washed and stained in […] DAPI for 10 minutes to visualize the cells. The underside of the membrane was photographed with an inverted fluorescent microscope to count the number of cells that had migrated through the Matrigel layer (38).
(§2) A375, SK-MEL-5 and SK-MEL-28 cell lines were maintained in DMEM growth medium containing 10% FCS, 2 mM L-glutamine and 1 mM sodium pyruvate. The WM3248 cells were maintained in MCDB153:L15 (4:1) growth medium containing 2% FCS, […] insulin and 1.68 mM CaCl2. To create PLX4032-resistant cells, A375, SK-MEL-5, SK-MEL-28 and WM3248 cells were treated with […] in monolayer culture in growth medium for several weeks. The surviving cells were then expanded and cultured in increasing doses of PLX4032 up to […]. The resulting PLX4032-resistant cells, designated PLX4032-resistant (e.g., A375-PLX-R) were routinely maintained in the presence of […] PLX4032.

[3] = system: PLX4032-resistant SK-MEL-5, SK-MEL-28 and WM3248 cells; assay: Spheroid formation, other PLX4032-resistant melanoma lines; format: cell-based; conditions: PLX4032-resistant SK-MEL-5, SK-MEL-28, WM3248; FIGS. 5B, 5E
Protocol: (§3) Cancer cells were maintained under attached conditions in growth media containing DMEM (Invitrogen, Frederick, Md.) supplemented with 4.5 mg/ml D-glucose, […] L-glutamine, 100 mg/ml sodium pyruvate, and 5% fetal calf serum. For spheroid culture, monolayer cultures were dissociated with 0.25% trypsin and the cells were collected by centrifugation, and resuspended in spheroid media, consisting of DMEM/F12 (1:1) (DMT-10-090-CV, Mediatech INC, Manassa, Va.) containing 2% B27 serum-free supplement (17504-044, Invitrogen, Frederick, Md.) 20 ng/ml EGF (E4269, Sigma, St. Louis), 0.4% bovine serum albumin (B4287, Sigma) and […] insulin (19278 Sigma, St. Louis, Mo.) and plated at 40,000 cells per 9.6 cm^2 well in six well ultra-low attachment Costar cluster dishes (4371, Corning, Tewksbury, Mass.). Parallel cultures were plated in spheroid media on conventional plastic dishes for growth as monolayer cultures.
(§4) A375, SK-MEL-5 and SK-MEL-28 cell lines were maintained in DMEM growth medium containing 10% FCS, 2 mM L-glutamine and 1 mM sodium pyruvate. […]
(§5) The impact of verteporfin on additional PLX4032 resistant melanoma cancer cell lines was examined. […] To determine whether YAP1 and TAZ can antagonize PLX4032 action, constitutively active YAP1 and TAZ were expressed in wild-type SK-MEL-28 cells and the impact on cell proliferation was monitored.

[4] = system: A375 cells; assay: Matrigel invasion assay, A375; format: cell-based
Protocol: as §1

[5] = system: A375 cells; assay: Spheroid formation assay, A375; format: cell-based
Protocol: as §3

[6] = system: A375-PLX-R cells; assay: Spheroid formation assay, A375-PLX-R; format: cell-based
Protocol: as §3, §2

[7] = system: A375-PLX-R spheroid cell-derived tumors; assay: Tumor xenograft assay, A375-PLX-R spheroid cell-derived tumors; format: in vivo, NSG mice
Protocol: Cells were grown for ten days as spheroids and a single cell suspension, prepared by trypsin digestion, was resuspended in phosphate buffered saline containing 30% Matrigel and 100 μl containing 0.1 million cells were injected subcutaneously at the two front flanks of NOD/scid/IL2 receptor gamma-knockout mice (NSG mice) using a 26.5 gauge needle. PLX4032 was dissolved in phosphate-buffered saline containing 10% DMSO and delivered at 20 mg/kg by oral gavage in […] three times per week (M/W/F). Verteporfin was dissolved in phosphate-buffered saline containing 10% DMSO and 0-100 mg/kg was delivered by intraperitoneal injection of […] three times per week (M/W/F). Five mice were used per group (two tumors per mouse) and treatment was initiated two days after tumor cell injection. Tumor growth was monitored by measuring tumor diameter and calculating tumor volume using the formula, volume=4/3π×(diameter/2)^3. Mice were euthanized by injection of 250 μl of a 2.5% stock of Avertin per mouse followed by cervical dislocation of the neck. Tumor samples were harvested to prepare extract for immunoblot and sections for immunostaining. These experiments were reviewed and approved by the University of Maryland-Baltimore Institutional Animal Care and Use Committee. The plotted values are mean±SEM and significance were determined using the students t-test.

[8] = system: PLX4032-resistant SK-MEL-5, SK-MEL-28 and WM3248 cells; assay: Matrigel invasion, other PLX4032-resistant melanoma lines; format: cell-based; conditions: PLX4032-resistant SK-MEL-5, SK-MEL-28, WM3248; FIGS. 5C, 5F
Protocol: as §1, §4, §5

Compound: CCCS(=O)(=O)Nc1ccc(F)c(C(=O)c2c[nH]c3ncc(-c4ccc(Cl)cc4)cc23)c1F [PLX4032]
- apoptosis (cleaved PARP accumulation, procaspase 8 and 9 levels) [1]: enhances
- cyclin B and cyclin A level ([1]; FIGS. 3A-3B): reduced
- p21Cip1 and p27 level ([1]; FIGS. 3A-3B): increased
- ERK1/2 signaling / phosphorylation ([1]; FIGS. 3A-3B, 3F): suppressed; also recorded: reduced
- matrigel invasion ([2]; A375-PLX-R, PLX4032 treatment): not suppressed; also recorded: did not impact
- spheroid formation [3]: did not reduce
- matrigel invasion ([4]; A375, PLX4032 treatment): not suppressed; also recorded: did not impact
- spheroid formation ([5]; A375 cells, FIGS. 2A-2B): suppressed
- A375-PLX-R spheroid formation ([6]; 0-1 μM PLX4032, no verteporfin, FIG. 5A legend): does not suppress
- A375-PLX-R spheroid formation ([6]; 0-1 mM PLX4032, no verteporfin, FIG. 5A): did not suppress
- spheroid formation ([6]; A375-PLX-R cells, FIGS. 2A-2B): not
- ERK1/2-P level in tumors ([7]; PLX4032 20 mg/kg in the presence of verteporfin): reduced
- tumor growth / tumor formation ([7]; PLX4032 20 mg/kg oral gavage three times per week, absence of verteporfin, 20 mg/kg): did not suppress
- matrigel invasion [8]: did not reduce

Compound: verteporfin
- suppression of matrigel invasion at higher verteporfin concentrations ([2]; A375-PLX-R (FIG. 4E)): nearly complete
- IC50 ([2]; A375-PLX-R, FIG. 4E legend, read-out: verteporfin concentration giving 50% suppression of matrigel invasion): 500 to 1000 nM
- spheroid formation [3]: reduced
- suppression of matrigel invasion at higher verteporfin concentrations ([4]; A375 (FIG. 4D), above 0.5-1 mM): nearly complete
- IC50 ([4]; A375, FIG. 4D legend, read-out: verteporfin concentration giving 50% suppression of matrigel invasion): 500 to 1000 nM
- IC50 ([5]; A375, FIG. 4A legend, read-out: verteporfin concentration suppressing spheroid formation by 50%): 100 to 250 nM
- spheroid formation at higher verteporfin concentrations ([5]; A375, above 0.1-0.25 mM): nearly completely inhibited
- IC50 ([6]; A375-PLX-R, FIG. 4B legend, read-out: verteporfin concentration suppressing spheroid formation by 50%): 100 to 250 nM
- spheroid formation at higher verteporfin concentrations ([6]; A375-PLX-R, above 0.1-0.25 mM): nearly completely inhibited
- PLX4032 suppression of spheroid number on verteporfin co-treatment ([6]; co-treatment 0.1 μM verteporfin with 0-1 μM PLX4032, FIG. 5A legend): restores
- PLX4032 suppression of spheroid number on verteporfin co-treatment ([6]; co-treatment 0.1 mM verteporfin with 0-1 mM PLX4032, FIG. 5A): restored
- YAP1, YAP1-P, TAZ and TEAD levels in tumors ([7]; 10 mg/kg verteporfin/20 mg/kg PLX4032-treated tumors, FIG. 7C): reduction
- tumor size ([7]; verteporfin 0-100 mg/kg intraperitoneal three times per week, FIGS. 7A-7B): dose-dependent reduction
- tumor formation ([7]; verteporfin 10 mg/kg alone): does not suppress
- PLX4032-dependent suppression of tumor formation ([7]; verteporfin 10 mg/kg with PLX4032 20 mg/kg): restores
- matrigel invasion [8]: reduced
